The source made the active and inactive calls. Cut-off read from the data, not from the text of the source, for most assays here: actives have a measured EC50 and inactives only a lower limit.
Columns and labels:
[1] = Luminescence Cell-Based Dose Confirmation HTS to Identify Inhibitors of Platelet Dense Granule Release. [Related pubchem assays: 1663 (Primary HTS), 1678 (Summary of Project)]; assay type: functional
[2] = target: Luciferin 4-monooxygenase (Photinus pyralis, UniProt P08659); test: inhibition of purified Photinus pyralis luciferase – biochemical, luminescence, dose response (AID 1891)
Chain of Luciferin 4-monooxygenase (P08659 whole entry): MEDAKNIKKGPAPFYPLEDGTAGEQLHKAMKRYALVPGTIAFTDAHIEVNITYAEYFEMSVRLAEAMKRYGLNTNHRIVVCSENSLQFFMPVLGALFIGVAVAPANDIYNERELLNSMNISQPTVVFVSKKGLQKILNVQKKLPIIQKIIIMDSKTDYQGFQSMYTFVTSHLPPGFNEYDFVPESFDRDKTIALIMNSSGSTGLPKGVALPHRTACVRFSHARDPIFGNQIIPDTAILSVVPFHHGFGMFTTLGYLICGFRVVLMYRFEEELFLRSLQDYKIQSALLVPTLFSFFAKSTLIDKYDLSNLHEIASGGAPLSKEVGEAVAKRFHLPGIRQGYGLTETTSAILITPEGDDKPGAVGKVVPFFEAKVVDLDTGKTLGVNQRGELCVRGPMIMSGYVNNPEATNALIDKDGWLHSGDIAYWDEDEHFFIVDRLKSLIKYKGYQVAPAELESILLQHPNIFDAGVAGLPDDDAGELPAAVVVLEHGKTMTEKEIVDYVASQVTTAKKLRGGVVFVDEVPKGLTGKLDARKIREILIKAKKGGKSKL

[3] = system: Streptococcus sp. 'group A'; test: Streptococcus pyogenes SK(-)GAS viability under kanamycin – luminescence, BacTiterGlo, confirmation, counter-screen for streptokinase expression inhibitor project, dose response (AID 1900); assay type: functional, organism-based
[4] = fluconazole-exposed Candida albicans growth modulators – fluorescence, retest, confirmation (AID 2467); assay type: functional, cell-based
[5] = system: Streptococcus; test: GAS UMAA2166 growth inhibition – luminescence, BacTiterGlo, counter-screen for streptokinase expression inhibitor project, dose response (AID 1915); assay type: functional, organism-based;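 note: potency for reduction of bacterial viability or growth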
[6] = viability of HCT116 lacking mutant beta-catenin – cell-based, human colon tumor, dose response (AID 1045); assay type: functional;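 note: HCT116 colon tumor cells with beta catenin knocked out; cells exposed to compound for 60 hours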
[7] = NIH-3T3 fibroblast cytotoxicity, dose response, cytotoxicity control, cell-based, fluorescence, Alamar Blue, secondary assay (AID 2327); assay type: functional;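 note: NIH-3T3 mouse fibroblasts cultured with fluconazole at 8 µg/mL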
[8] = Trypanosoma cruzi growth suppression in host cells – NIH3T3 host cells, beta-gal luminescence, confirmation (AID 2044); assay type: functional, cell-based;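 note: intracellular parasites grown in NIH/3T3 mouse fibroblasts as host cells; luminescent beta-galactosidase reporter signal from transgenic T. cruzi replicating inside host cells; inhibitors lower the luminescence signal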
[9] = NIH3T3 cell viability loss – ATP luminescence, mouse fibroblasts, counter-screen, dose response (AID 2010); assay type: functional, cell-based;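 note: cells exposed to compound for about 90 hours before reading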
[10] = target: T1, Streptokinase A (Streptococcus pyogenes serotype M1, UniProt P10520); test: viability-normalized secreted streptokinase activity reduction – plasminogen activation absorbance, OD405, dose response (AID 1914); assay type: functional, Streptococcus pyogenes M1 GAS;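 note: secreted streptokinase activity via plasminogen activation per viability signal from cell pellet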
T1 sequence (P10520 whole entry): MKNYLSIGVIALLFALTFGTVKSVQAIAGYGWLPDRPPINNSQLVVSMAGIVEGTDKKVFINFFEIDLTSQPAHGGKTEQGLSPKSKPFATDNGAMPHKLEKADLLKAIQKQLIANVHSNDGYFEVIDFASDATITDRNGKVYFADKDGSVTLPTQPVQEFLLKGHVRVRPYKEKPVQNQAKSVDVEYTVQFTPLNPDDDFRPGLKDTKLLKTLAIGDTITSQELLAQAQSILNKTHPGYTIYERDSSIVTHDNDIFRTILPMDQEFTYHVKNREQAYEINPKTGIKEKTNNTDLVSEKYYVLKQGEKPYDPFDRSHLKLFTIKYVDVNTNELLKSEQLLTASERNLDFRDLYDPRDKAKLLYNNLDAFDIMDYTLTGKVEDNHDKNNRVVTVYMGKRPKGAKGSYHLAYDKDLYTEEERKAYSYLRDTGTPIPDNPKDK

[11] = viability of PTEN-deleted HCT116 cells – cell-based, HCT116 PTEN knockout, dose response (AID 1047); assay type: functional;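 note: HCT116 colon tumor cells with PTEN knocked out; cells exposed to compound for 60 hours before readout; potency for loss of cell viability measured by luminescence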
[12] = target: FAD-linked sulfhydryl oxidase ALR (Homo sapiens, UniProt P55789); test: ALR-catalysed DTT oxidation blockers – biochemical, H2O2 detection, luminescence, cherry-pick, dose response (AID 493248)
Chain of FAD-linked sulfhydryl oxidase ALR (P55789 whole entry): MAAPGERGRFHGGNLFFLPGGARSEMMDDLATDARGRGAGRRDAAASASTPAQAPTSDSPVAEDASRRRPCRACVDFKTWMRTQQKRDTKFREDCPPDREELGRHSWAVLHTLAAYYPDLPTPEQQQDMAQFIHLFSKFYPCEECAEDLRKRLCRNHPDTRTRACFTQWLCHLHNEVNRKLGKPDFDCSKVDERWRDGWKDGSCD

[13] = target: T2, Protein skinhead-1 (Caenorhabditis elegans, UniProt P34707); assay type: functional
T2 sequence (P34707 whole entry): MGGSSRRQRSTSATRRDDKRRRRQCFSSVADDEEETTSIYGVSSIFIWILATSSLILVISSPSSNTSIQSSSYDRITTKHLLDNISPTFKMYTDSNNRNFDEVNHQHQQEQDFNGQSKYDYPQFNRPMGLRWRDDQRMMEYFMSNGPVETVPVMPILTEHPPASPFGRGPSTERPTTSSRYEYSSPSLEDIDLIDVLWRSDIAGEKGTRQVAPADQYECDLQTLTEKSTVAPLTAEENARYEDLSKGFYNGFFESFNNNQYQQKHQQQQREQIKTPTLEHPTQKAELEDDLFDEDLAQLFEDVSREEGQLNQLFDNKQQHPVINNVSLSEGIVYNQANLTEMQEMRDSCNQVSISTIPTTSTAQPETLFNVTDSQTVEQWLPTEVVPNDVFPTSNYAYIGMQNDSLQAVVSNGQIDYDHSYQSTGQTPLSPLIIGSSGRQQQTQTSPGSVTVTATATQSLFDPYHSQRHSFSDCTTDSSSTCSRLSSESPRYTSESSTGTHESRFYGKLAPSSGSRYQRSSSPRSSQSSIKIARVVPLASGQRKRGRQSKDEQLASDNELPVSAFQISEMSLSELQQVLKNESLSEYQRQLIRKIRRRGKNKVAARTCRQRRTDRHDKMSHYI

[14] = target: T3, Carboxy-terminal domain RNA polymerase II polypeptide A small phosphatase 1 (Homo sapiens, UniProt Q9GZU7); test: CTDSP1 inhibitors, concentration-response, biochemical, absorbance readout, ultra-high-throughput screen actives (AID 540297); assay type: functional
T3 sequence (Q9GZU7 whole entry): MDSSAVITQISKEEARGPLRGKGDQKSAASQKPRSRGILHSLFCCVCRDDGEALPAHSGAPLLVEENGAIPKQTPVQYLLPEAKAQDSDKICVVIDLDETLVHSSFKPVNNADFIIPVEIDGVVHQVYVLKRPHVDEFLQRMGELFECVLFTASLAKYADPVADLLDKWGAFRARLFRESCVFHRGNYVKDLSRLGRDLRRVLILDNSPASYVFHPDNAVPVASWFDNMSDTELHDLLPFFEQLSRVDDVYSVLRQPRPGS

[15] = target: T4, Rac GTPase-activating protein 1 (Homo sapiens, UniProt Q9H0H5); test: blockers of MgcRacGAP-driven Rac1 GTP hydrolysis – biochemical, ADP Hunter fluorescence, primary and confirmatory, confirmation (AID 624330); assay type: functional
T4 sequence (Q9H0H5 whole entry): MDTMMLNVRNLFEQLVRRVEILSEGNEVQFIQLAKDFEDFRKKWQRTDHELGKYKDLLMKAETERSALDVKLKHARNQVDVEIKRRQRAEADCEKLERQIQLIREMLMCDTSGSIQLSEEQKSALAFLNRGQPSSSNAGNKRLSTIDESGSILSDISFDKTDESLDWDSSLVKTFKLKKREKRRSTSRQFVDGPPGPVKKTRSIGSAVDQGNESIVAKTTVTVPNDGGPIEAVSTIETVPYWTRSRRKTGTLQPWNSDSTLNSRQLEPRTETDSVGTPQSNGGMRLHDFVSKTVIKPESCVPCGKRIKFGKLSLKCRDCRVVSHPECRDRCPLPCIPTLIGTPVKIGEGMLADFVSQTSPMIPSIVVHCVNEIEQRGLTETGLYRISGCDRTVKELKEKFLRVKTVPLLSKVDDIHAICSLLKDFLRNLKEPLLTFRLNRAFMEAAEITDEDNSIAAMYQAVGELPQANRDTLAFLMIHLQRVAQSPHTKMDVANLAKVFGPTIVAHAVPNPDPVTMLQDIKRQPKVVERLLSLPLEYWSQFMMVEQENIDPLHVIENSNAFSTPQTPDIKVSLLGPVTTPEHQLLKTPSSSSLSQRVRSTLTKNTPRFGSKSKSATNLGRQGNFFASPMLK

[16] = target: T5, Heat shock factor protein 1 (Mus musculus, UniProt P38532); test: decrease of HSF1-responsive luciferase luminescence – cell-based, NIH3T3, dose retest, confirmation (AID 2382); assay type: functional;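 note: NIH3T3 fibroblasts with HSF1-driven luciferase reporter stressed by proteasome inhibitor MG132; luminescence from HSF1-driven luciferase expression after 8 hours of MG132 stress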
T5 sequence (P38532 whole entry): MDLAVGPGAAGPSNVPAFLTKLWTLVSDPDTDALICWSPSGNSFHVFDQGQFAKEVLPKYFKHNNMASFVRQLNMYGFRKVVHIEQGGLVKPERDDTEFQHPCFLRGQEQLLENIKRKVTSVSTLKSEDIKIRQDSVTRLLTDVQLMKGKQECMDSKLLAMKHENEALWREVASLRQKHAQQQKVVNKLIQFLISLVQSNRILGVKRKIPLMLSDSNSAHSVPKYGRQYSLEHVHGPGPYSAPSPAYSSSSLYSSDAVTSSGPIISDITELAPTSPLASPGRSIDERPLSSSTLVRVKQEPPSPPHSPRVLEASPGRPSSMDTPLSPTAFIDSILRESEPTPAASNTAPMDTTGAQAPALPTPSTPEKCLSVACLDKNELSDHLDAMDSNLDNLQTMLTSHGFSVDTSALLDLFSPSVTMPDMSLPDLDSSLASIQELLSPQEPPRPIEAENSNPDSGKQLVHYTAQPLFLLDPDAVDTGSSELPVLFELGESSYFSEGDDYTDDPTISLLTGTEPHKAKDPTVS

[17] = alpha-synuclein stem-loop luciferase translation blockers – H4 neuroglioma cells, luminescence, confirmation (AID 1988); assay type: functional, cell-based
[18] = Luminescence Cell-Based Dose Response HTS to Identify Inhibitors of 5'UTR Stem-Loop Driven Prion Protein mRNA Translation in H4 Neuroglioblastoma Cells. [Related pubchem assays: 1827 (Project Summary), 1813 (Primary HTS)]; assay type: functional
[19] = luciferase reporter signal suppression in cells – H4 neuroglioma cells, luminescence, dose response (AID 1990); assay type: functional, cell-based
[20] = Luminescence Cell-Based Dose Retest to Confirm Inhibitors of Cancer Stem Cells. [Related pubchem assays (depositor defined):AID2717, AID2721]; assay type: functional; details: Homo sapiens
[21] = Luminescence Cell-Based Dose Confirmation HTS to Identify Activators of 5'UTR Stem-Loop Driven Alpha-Synuclein mRNA Translation in H4 Neuroglioblastoma Cells. [Related pubchem assays: 1829 (Project Summary), 1814 (Primary HTS)]; assay type: functional
[22] = Luminescence Cell-Based Dose Response HTS to Identify Activators of Luciferase Translation or Activity in H4 […] Cells. [Related pubchem assays: 1829 (Project Summary), 1814 (Primary HTS)]; assay type: functional
[23] = system: H4; test: Luminescence Cell-Based Dose Response HTS to Identify Activators of 5'UTR Stem-Loop Driven Prion Protein mRNA Translation in H4 Neuroglioblastoma Cells. [Related pubchem assays: 1829 (Project Summary), 1814 (Primary HTS)]; assay type: functional; details: Homo sapiens

O=C1c2ccccc2C(O)N1CCN1CCOCC1 (stereo not given)
EC50 [1]: > 112 µM (not active)
EC50 [2]: > 112 µM (not active)

CC(C)C(=O)Nc1ncc2c(n1)CC(c1cccs1)CC2=O (stereo not given)
EC50 [1]: > 112 µM (not active)
EC50 [2]: > 112 µM (not active)

OC(CNCC1CCCO1)Cn1c2ccc(Br)cc2c2cc(Br)ccc21 (stereo not given)
EC50 [3]: 3.18 µM (active)
EC50 [4]: > 38 µM (not active)
EC50 [5]: 8.12 µM (active)
EC50 [6]: 4.46 µM (active)
EC50 [7]: 9.05 µM (inconclusive)
EC50 [8]: 533 nM (active)
EC50 [9]: > 60 µM (inconclusive)
EC50 [10]: 7.22 µM (active)
EC50 [11]: 4.41 µM (active)

[O-][S+](c1ccc2ccccc2c1)c1cnns1 (stereo not given)
AC50 [12]: 0.769 µM (active)

Cc1ccc(C)c(N2CCN(S(=O)(=O)c3ccc4c(c3)OCCO4)CC2)c1
EC50 [1]: > 112 µM (not active)
EC50 [2]: > 112 µM (not active)

O=C(NCSc1ccncn1)c1ccccc1
AC50 [12]: 1.49 µM (active)

O=C(NCCC1=CCCCC1)NC1CCCCC1
IC50 [13]: > 100 µM (inactive)
EC50 [1]: > 112 µM (not active)
EC50 [2]: > 112 µM (not active)

Cc1nn(-c2ccc(F)cc2)c(Cl)c1/C=N/NC(=O)c1cccc(S(=O)(=O)N2CCCC2)c1
IC50 [14]: 10.7 µM (active)

CCCc1cc(C(N)=O)c(NC(=O)c2ccoc2C)s1
AC50 [12]: 2.74 µM (active)

Cc1ccc(S(=O)(=O)NNC(=O)NC23CC4CC(CC(C4)C2)C3)cc1
AC50 [12]: 1.02 µM (active)

COc1cc2nc(S)n3nc(CCn4nc(C)cc4C)nc3c2cc1OC
EC50 [3]: 28.4 µM (active)
IC50 [15]: 23.2 µM (active)
EC50 [5]: > 150 µM (not active)
EC50 [6]: 25 µM (active)
EC50 [10]: > 150 µM (not active)
EC50 [11]: 14.5 µM (active)

Fc1ccc(-c2nnc(NC3=NCCCCC3)o2)cc1
EC50 [16]: 16 µM (active)
EC50 [17]: 1.4 µM (active)
EC50 [18]: 751 nM (active)
EC50 [19]: 2.66 µM (active)
EC50 [1]: 2.88 µM (active)
EC50 [2]: 13.9 µM (active)

Cc1cc(C)c(C)c(S(=O)(=O)N[C@@H](C)C(=O)OCc2cc(=O)n3cc(Br)ccc3n2)c1C
IC50 [14]: 7.42 µM (active)

CCCn1nc(NS(=O)(=O)c2ccc(F)cc2)c2cc3ccccc3nc21
EC50 [1]: > 112 µM (not active)
EC50 [2]: > 112 µM (not active)

Cc1sc(NC(=O)c2cc(-c3ccc(Cl)cc3)nc3ccccc23)c(C(N)=O)c1C
EC50 [6]: 15.3 µM (active)
EC50 [11]: 17.3 µM (active)

COc1ccc(Cn2c(C3CCCCC3)nc3c(c(=O)c4ccccc4n3C)c2=O)cc1
EC50 [3]: 6.03 µM (active)
EC50 [5]: 6.96 µM (active)
IC50 [14]: 5.55 µM (active)
EC50 [10]: > 150 µM (not active)

COc1cc(C(=O)Nc2ccc(Br)cc2C(=O)c2ccccc2Cl)cc(OC)c1OC
EC50 [6]: 29 µM (active)
EC50 [11]: 153 µM (active)

O=C(N/N=C/c1ccc2c(c1)OCO2)c1ccc(COCC(F)(F)C(F)F)cc1
IC50 [14]: 9.06 µM (active)
AC50 [20]: 1.12 µM (active)

Cc1cccc(N2CC(C)Cn3c2nc2c3c(=O)n(CC(=O)OCc3ccccc3)c(=O)n2C)c1 (stereo not given)
EC50 [1]: > 112 µM (not active)
EC50 [2]: 27.8 µM (active)

CC1=NN(c2ccccc2)C(=O)/C1=C/c1cc2cc(C)ccc2nc1N1CCCCC1
EC50 [21]: 8.69 µM (active)
EC50 [6]: 25.2 µM (active)
EC50 [22]: 17.1 µM (active)
EC50 [23]: > 120 µM (inconclusive)
EC50 [11]: 17.8 µM (active)

From ChEMBL document CHEMBL1201862, “PubChem BioAssay data set” (2004)
